Results taken from patent US20240181087A1, “COMPOSITION FOR CONTRAST IMAGING OF CANCER” (ASTELLAS PHARMA INC., priority 2021, published 2024).

Tests used:
Type in all cases: in vivo
[1] = test system: Human esophageal cancer cell KYSE850; experiment: near-infrared fluorescence observation, human esophageal cancer subcutaneous transplant mouse model; conditions: nude mouse, tail vein 120 nmol/kg, 30 seconds after administration
Description: Human esophageal cancer cell KYSE850 was subcutaneously transplanted into the neck of a nude mouse (BALB/cSlc-nu, SPF, male, 5 weeks old), and the resultant mouse was bred for 18 days to create a mouse having esophageal cancer grown therein. The human esophageal cancer cell KYSE850 was purchased from JCRB cell bank of National Institutes of Biomedical Innovation, Health and Nutrition (Registration Number: JCRB1422, establisher: Graduate School of Pharmaceutical Sciences, Kyoto University, Department of Nanobio Drug Discovery, Yutaka Shimada).
The near-infrared fluorescence from a cancer tissue (circled site) was strong, and that from a normal tissue was weak (FIG. 25). It is noted that fluorescence in an elliptical frame corresponds to near-infrared fluorescence from the right and left kidneys.

[2] = test system: mouse bladder cancer cell MB49; experiment: near-infrared fluorescence observation of bladder after intravesical administration via the urethra, MB49 bladder cancer mouse model; conditions: into bladder via urethra, after 30 minutes washed with saline five times
Protocol: Two bladder cancer mouse models (weight: about 20 g), having mouse bladder cancer cell MB49 transplanted in the bladder mucosa, and then grown for 3 weeks or 4 weeks, were used. To the bladder of each of the mice, 0.2 mL of a saline containing the compound III (concentration of the compound III: 0.075 mg/mL) was administered via the urethra, and after 30 minutes, the inside of the bladder was washed via the urethra with saline five times. Thereafter, the mouse was subjected to laparotomy under anesthesia by subcutaneous administration of ketamine (75 mg/kg) and medetomidine (1 mg/kg), and near-infrared fluorescence observation was performed with a near-infrared fluorescence imaging device (pde-neo, manufactured by Hamamatsu Photonics K.K.) (FIG. 3, right: near-infrared fluorescence image).
As a comparative example, a saline containing the compound III was administered to the bladder of a normal mouse (weight: about 20 g) via the urethra, and after 30 minutes, the inside of the bladder was washed via the urethra with saline five times. Thereafter, the mouse was subjected to laparotomy under anesthesia by subcutaneous administration of ketamine (75 mg/kg) and medetomidine (1 mg/kg), and near-infrared fluorescence observation was performed with a near-infrared fluorescence imaging device (pde-neo, manufactured by Hamamatsu Photonics K.K.) (FIG. 4). […]

[3] = test system: human tongue cancer cells CAL27; experiment: near-infrared fluorescence imaging after topical administration into tumor, human tongue cancer subcutaneous transplant model; conditions: SCID mouse, 0.02 to 0.1 mL of 1 mg/mL, immediately after and 50 minutes after administration
Protocol: (§1) A human cancer cell transplant model mouse was created as follows: • (Head and neck/tongue cancer) To immunodeficient SCID mice (weight: 17 g to 23 g), about 10^6 human tongue cancer cells CAL27 (purchased from American Type Culture Collection: ATCC) were subcutaneously administered, and the resultant mice were grown for 49 days to create tumor models. • (Brain cancer/neuroblastoma) To immunodeficient SCID mice (weight: 17 g to 23 g), about 10^6 human neuroblastoma cells SH-SY5Y (purchased from ATCC) were subcutaneously administered, and the resultant mice were grown for 90 days to create tumor models. • (Brain cancer/glioblastoma) To immunodeficient SCID mice (weight: 17 g to 23 g), about 10^6 human glioblastoma cells U-251MG (obtained from European Collection of Authenticated Cell Cultures) were subcutaneously administered, and the resultant mice were grown for 90 days to create tumor models.
(§2) Subsequently, to the tumor of each of the mouse models, 0.02 to 0.1 mL of a saline containing the compound III (concentration of the compound III: 1 mg/mL) was topically administered, and fluorescence imaging was conducted transdermally with a near-infrared fluorescence camera (Fluobeam, manufactured by Fluoptics) (excitation wavelength: 780 nm, detection wavelength: 800 nm or more).

[4] = test system: human neuroblastoma cells SH-SY5Y; experiment: near-infrared fluorescence imaging after topical administration into tumor, human neuroblastoma subcutaneous transplant model; conditions: SCID mouse, 0.02 to 0.1 mL of 1 mg/mL, 1 hour after administration
Protocol: as §1, §2

RenCa cell = experiment: near-infrared fluorescence imaging of liver, liver cancer-bearing mouse (RenCa, intravenous inoculation); conditions: tail vein 120 nmol/kg, after 10 minutes, laparotomy
Protocol: Metastatic spontaneous renal cell carcinoma line from BALB/c mouse, RenCa cell (1×10^6 cells, purchased from CLS Cell Lines Service GmbH, Eppelheim, Germany) was intravenously inoculated into a mouse (BALB/cCrSlc, SPF, female, 7 weeks old) under anesthesia by subcutaneous administration of ketamine (75 mg/kg) and medetomidine (1 mg/kg), and the resultant mouse was bred for 18 days to cause liver cancer therein. The mouse was anesthetized by subcutaneous administration of ketamine (75 mg/kg) and medetomidine (1 mg/kg), and the compound III (120 nmol/kg weight) was administered through the tail vein. After 10 minutes, laparotomy was conducted to perform near-infrared fluorescence imaging with a near-infrared fluorescence imaging device (pde-neo, manufactured by Hamamatsu Photonics K.K.). Near-infrared fluorescence of the compound III from a liver normal tissue was strong, light emission of the compound III from a liver cancer site (framed site in the right image) was very weak, and thus, the normal site and the cancer site could be distinguished from each other depending on the light emission (FIG. 19).

[5] = test system: Human stomach cancer cell MKN45; experiment: near-infrared fluorescence observation, human stomach cancer cell subcutaneous transplant mouse; conditions: nude mouse, tail vein 120 nmol/kg, observed from above the skin
Description: Human stomach cancer cell MKN45 (1×10^7 cells, purchased from JCRB cell bank of National Institutes of Biomedical Innovation, Health and Nutrition) was subcutaneously transplanted into the right or left side, or the center of the back in the base of the foreleg of a nude mouse (BALB/cSlc-nu, SPF, male, 5 weeks old), and the resultant mouse was bred for 10 days to create a mouse having a stomach cancer tissue grown therein. After anesthetizing the mouse (weight: about 20 g) by subcutaneous administration of ketamine (75 mg/kg) and medetomidine (1 mg/kg), the compound III (120 nmol/kg weight) was administered through the tail vein, and near-infrared fluorescence was observed from above the skin on the back side with a near-infrared fluorescence imaging device (pde-neo, manufactured by Hamamatsu Photonics K.K.).

COC1=C(/C=C/C2=[N+](CCC(=O)NCCCO[C@H]3[C@H]4O[C@H]5[C@H](O)[C@@H](O)[C@@H](O[C@H]6[C@H](O)[C@@H](O)[C@@H](O[C@H]7[C@H](O)[C@@H](O)[C@@H](O[C@H]8[C@H](O)[C@@H](O)[C@@H](O[C@H]9[C@H](O)[C@@H](O)[C@@H](O[C@H]%10[C@H](O)[C@@H](O)[C@@H](O[C@@H]([C@@H]3O)[C@@H](CO)O4)O[C@@H]%10CO)O[C@@H]9CO)O[C@@H]8CO)O[C@@H]7CO)O[C@@H]6CO)O[C@@H]5CO)c3ccc4ccccc4c3C2(C)C)CCC/C1=C\C=C1\N(CCC(=O)NCCCO[C@H]2[C@H]3O[C@H]4[C@H](O)[C@@H](O)[C@@H](O[C@H]5[C@H](O)[C@@H](O)[C@@H](O[C@H]6[C@H](O)[C@@H](O)[C@@H](O[C@H]7[C@H](O)[C@@H](O)[C@@H](O[C@H]8[C@H](O)[C@@H](O)[C@@H](O[C@H]9[C@H](O)[C@@H](O)[C@@H](O[C@@H]([C@@H]2O)[C@@H](CO)O3)O[C@@H]9CO)O[C@@H]8CO)O[C@@H]7CO)O[C@@H]6CO)O[C@@H]5CO)O[C@@H]4CO)c2ccc3ccccc3c2C1(C)C.[Cl-] [compound III, 3-(3-{[3-(cyclomaltoheptaose-21-O-yl)propyl]amino}-3-oxopropyl)-2-{(1E)-2-[(3E)-3-{(2E)-2-[3-(3-{[3-(cyclomaltoheptaose-21-O-yl)propyl]amino}-3-oxopropyl)-1,1-dimethyl-1,3-dihydro-2H-benzo[e]indol-2-ylidene]ethylidene}-2-methoxycyclohexa-1-en-1-yl]ethene-1-yl}-1,1-dimethyl-1H-benzo[e]indol-3-ium chloride]
near-infrared fluorescence from esophageal cancer tissue [1]: strong | near-infrared fluorescence from normal tissue [1]: weak | near-infrared fluorescence in cancer tissue of the bladder ([2]; MB49 bladder cancer mouse model, 0.2 mL 0.075 mg/mL): specifically observed | near-infrared fluorescence of normal tissue (bladder) ([2]; normal mouse): did not emit near-infrared fluorescence | retention inside the tumor (fluorescence imaging) [3]: retained inside the tumor | retention inside the tumor (fluorescence imaging) [4]: retained inside the tumor | light emission from liver cancer site (RenCa cell): very weak | near-infrared fluorescence from liver normal tissue (RenCa cell): strong | near-infrared fluorescence of stomach cancer tissue versus normal tissue [5]: stronger in a cancer tissue than in a normal tissue
